Where two headings read alike, the source gives them in different places.
How the values were obtained:
Type in all cases: cell-based
SARS-CoV-2 replicon = experiment: microbe, parasite or virus in culture; settings: for IC50: Severe acute respiratory syndrome coronavirus 2, HEK-293T, read-out: IC50 upon replicon RNA synthesis (luciferase activity); for Result of compound library screening on replicon: Approved Drug Screening Library, final concentration 20 μM, 24 h treatment
[1] = system: GFP signal of ps2V plasmid
authentic SARS-CoV-2 = experiment: Authentic SARS-CoV-2 infection assay, viral RNA copies by RT-qPCR; settings: Severe acute respiratory syndrome coronavirus 2, HEK-293T, 24 h, read-out: IC50 on authentic viruses (viral RNA copies)
IRES-CMV-luciferase = IRES-CMV-luciferase plasmid counter-assay in 293T cells
[2] = Homo sapiens, HEK-293T, read-out: IC50 on IRES-CMV-luciferase activity, 293T cells, drug added 24 to 30 h after transfection, 24 h treatment
[3] = 293T cells, drug added 24 to 30 h after transfection, 24 h treatment

Compound | IC50 (SARS-CoV-2 replicon) [µM] | Effect on GFP signal [1] | IC50 (authentic SARS-CoV-2) [µM] | IC50 (IRES-CMV-luciferase; 293T cells, drug added 24 to 30 h after transfection, 24 h treatment, read-out: IC50 on IRES-CMV-luciferase activity) [µM] | IC50 (IRES-CMV-luciferase; [2]) [µM] | Result of compound library screening on replicon (SARS-CoV-2 replicon) | IC50 on IRES-CMV-luciferase activity (IRES-CMV-luciferase; [3])
Cc1cccc(C)c1OCC(=O)N[C@@H](Cc1ccccc1)[C@@H](O)C[C@H](Cc1ccccc1)NC(=O)[C@H](C(C)C)N1CCCNC1=O [lopinavir] | 6.79 ± 1.09 | little effect on GFP signal |  |  |  |  | 
O=C1c2c(O)ccc(O)c2C(=O)c2c(NCCNCCO)ccc(NCCNCCO)c21 [mitoxantrone] | 0.338 ± 0.235 |  | 0.133 ± 0.0901 | 26.8 ± 1.2 | 27.8 |  | 
CCC(CC)COC(=O)[C@H](C)N[P@](=O)(OC[C@H]1O[C@@](C#N)(c2ccc3c(N)ncnn23)[C@H](O)[C@@H]1O)Oc1ccccc1 [remdesivir] | 12.4 ± 1.08 | little effect on GFP signal |  |  |  |  | 
C[C@@H]1O[C@@H](O[C@H]2C[C@@H](O)[C@]3(CO)[C@H]4[C@H](O)C[C@]5(C)[C@@H](C6=CC(=O)OC6)CC[C@]5(O)[C@@H]4CC[C@]3(O)C2)[C@H](O)[C@H](O)[C@H]1O [ouabain] |  |  |  |  |  | hit | 
CCN(CC)C(=S)SSC(=S)N(CC)CC [disulfiram] | 9.32 ± 1.65 | little effect on GFP signal |  |  |  |  | 
Cc1ccc(NC(=O)c2ccc(CN3CCN(C)CC3)cc2)cc1Nc1nc(-c2cccnc2)cs1 [masitinib] | 0.652 ± 0.0661 |  | 0.597 ± 0.341 |  | 8.64 |  | 
C[C@H]1O[C@@H](O[C@H]2[C@@H](O)C[C@H](O[C@H]3[C@@H](O)C[C@H](O[C@H]4CC[C@@]5(C)[C@H](CC[C@@H]6[C@@H]5CC[C@]5(C)[C@@H](C7=CC(=O)OC7)CC[C@]65O)C4)O[C@@H]3C)O[C@@H]2C)C[C@H](O)[C@@H]1O [digitoxin] |  |  |  |  |  | hit | 
COc1cccc2c1C(=O)c1c(O)c3c(c(O)c1C2=O)C[C@@](O)(C(=O)CO)C[C@@H]3O[C@H]1C[C@H](N)[C@H](O)[C@H](C)O1 [Adriamycin] | 0.824 ± 0.114 |  | 0.612 ± 0.228 |  | 17.8 |  | 
C=CC(=O)Nc1cccc(Nc2nc(Nc3ccc(N4CCN(C(C)=O)CC4)cc3OC)ncc2C(F)(F)F)c1 [rociletinib] | 7.32 ± 1.21 |  | 11.2 ± 1.89 |  |  |  | no statistical significance
CCc1cc2c(cc1N1CCC(N3CCOCC3)CC1)C(C)(C)c1[nH]c3cc(C#N)ccc3c1C2=O [alectinib] | 0.564 ± 0.0175 |  | 0.14 ± 0.0913 |  |  |  | no statistical significance
CC[C@H]1CN2CCc3cc(OC)c(OC)cc3[C@@H]2C[C@@H]1C[C@H]1NCCc2cc(OC)c(OC)cc21 [emetine] | 0.273 ± 0.0093 | little effect on GFP signal | 0.155 ± 0.068 |  |  | hit | 
CC(C)c1nc(CN(C)C(=O)N[C@H](C(=O)N[C@@H](Cc2ccccc2)C[C@H](O)[C@H](Cc2ccccc2)NC(=O)OCc2cncs2)C(C)C)cs1 [ritonavir] | 14.8 ± 1.05 | little effect on GFP signal |  |  |  |  | 
